Reference: article PMC3578829, “A Small Molecule (Pluripotin) as a Tool for Studying Cancer Stem Cell Biology: Proof of Concept” (PLoS ONE, 2013)
Values joined by “and” are separate entries in the source; they are usually repeats but may differ in a detail not shown here. Equal values may be shown once.

What was measured:
HT29 [1] = experiment: Soft agar cloning assay; assay type: cell-based
Procedure: (§1) The soft agar colony formation assay has been previously described. In brief, for each treatment condition, triplicate 35 mm^2 dishes were coated with a 1 ml base layer containing 0.7% agarose (Seaplaque: FMC Corp., Rockland, ME). On day 0, cells were dissociated, washed once in growth medium, and subcultured by layering various cell concentrations in 0.5 ml culture medium containing 0.3% agarose onto the base coat. Culture dishes were transferred to a refrigerator (4°C) for 15 min, to room temperature for 10 min, and then to culture incubators. An upper layer of 0.5 ml culture medium was applied on day 0. Cultures were stained with MTT (1 mg/ml) for visualization and imaging at multiple time intervals (day 7 and 14). Cumulative counts of colonies (diameters, >60 µm) and cumulative volumes of CFU (diameters >120 µm) were determined with an Omnicon FAS-II (Bausch & Lomb, Rochester, NY) following calibration with an Omnicon test plate 3 and polystyrene microspheres embedded in soft agar matrix. The evaluable region of each culture dish (35 contiguous fields equivalent to 51% of the cell layer culture volume) was analyzed. Selective scoring of viable cell groups was achieved by adjustment of the instrument detection threshold to exclude images of nonstained cellular material and debris. The data was analyzed with Lotus Symphony software.

HCT-116 = experiment: Soft agar cloning assay; assay type: cell-based
Procedure: as §1

[2] = tested on: Seven Colon Tumor Lines of the NCI60 Panel; experiment: Limiting dilution tumorigenicity, combined colon tumor lines; assay type: in vivo, NOD.SCID mice; settings: for Tumor take rate, TOTAL: 7 colon tumor lines treated 5 days with 0.1 µM SC-1
Procedure: Five day exposures were conducted.
Six week old female NOD.SCID mice were randomly assigned to each of 20 treatment arms (n = 5/group). Treated and control colon tumor lines were enzymatically harvested and counted prior to dilution in RPMI 1640 (at 10, 100, 1,000, 10,000 cells/inoculum) for subcutaneous injection into the axillary region using a volume of […]. Positive control groups were established such that tumor formation occurred in all mice in approximately one week thus confirming that all tumor lines studied were tumorigenic. Cell inocula for the positive control groups ranged from 1×10^6 to 2.5×10^6. Cell viability of the cell stocks was assessed by trypan blue exclusion prior to dilution for injection and was routinely found to be >95%. Tumor formation was monitored weekly using caliper measurements and the tumor mass was calculated as weight in mg = 1/2×(tumor length)×(tumor width)^2. All experiments were terminated at 120 days or when tumor weight exceeded 2000 mg for any individual mouse. In selected studies, tumor cells were resuspended in Matrigel (50% concentration, BD Biosciences) prior to injection.
Chi square tests and nonparametric conditional estimate for the Cochran Mantel-Haenzel common odds ratio were performed for the limiting dilution tumorigenicity studies. In the later case, the tumor lines were used as the stratification variable and the test evaluated whether the tumor take rate was equal in the two groups (control and treated). The purpose of combining data across distinct colon tumor lines was to aggregate small changes that if summed, may represent a heterogeneous population of patients with colon tumors, similar to analyses in clinical trials.

CHK1 = CHK1 (Homo sapiens, UniProt O14757); experiment: In vitro kinase inhibition assay (same assay as RSK2); assay type: biochemical
Procedure: (§2) RSK2 (90 kD ribosomal S6 kinase), a kinase with both a N- and C-terminal functional domains, phosphorylates multiple targets and is phosphorylated by ERK1/2, another SC-1 target. As a downstream effector, RSK2 signals many cellular behaviors including cell survival, growth, proliferation, and migration. […] Potential inhibitory activity of SC-1 on a random selection of other protein kinases (Aurora kinase B, CHK1, and CHK2) was also evaluated in the same assay and no effect was found (Figure 4A). To determine if activity of related (to RSK2) protein kinases in the AGC kinase family was inhibited by SC-1, further studies were conducted (Table 3). […] Because SC-1 inhibited these selected kinases in the micromolar range and the kinase assay is distinct from the one reporting data in Figure 4A, the positive EC50 value for Abl1 kinase was reported in Table 3 as well. These findings were consistent with predictions reported by Okram et al..
(§3) The RSK2 in vitro kinase inhibition assay utilized was a modification of protocols established by Nguyen et al.. Additional protocols that confirmed the results depicted in Figure 4 and evaluated kinase inhibitory activity in a random selection of protein kinases (Table 3) were conducted at Reaction Biology Corporation (Malvern, PA). This was a miniaturized ^33P-based screening assay.

CHK2 = CHK2 (Homo sapiens, UniProt O96017); experiment: as above; assay type: biochemical
Procedure: as §2, §3

Aurora kinase B = Aurora kinase B (Homo sapiens, UniProt Q96GD4); experiment: as above; assay type: biochemical
Procedure: as §2, §3

HT29 [3] = experiment: Sphere formation in serum free media and low attachment vessels; assay type: cell-based; settings: serum free media, low attachment vessels, 0.1 µM SC-1, Day 1 and Day 5
Procedure: HT29 tumor line was cultured at 0.5–8 cells/µl in serum free media (RPMI 1640 containing EGF (20 ng/ml), bFGF (10 ng/ml) and B27 supplement) one day prior to addition of SC-1 (0.1 µM). The number of spheres per well was counted on Day 1 (A) and Day 5 (B) following treatment. Statistically significant effects (*p<0.05) for SC-1 treatment were found at all conditions where spheres formed. A representative experiment of 3 is shown here. (PDF) Click here for additional data file.

OCT4 = experiment: Immunoblotting of OCT4 in HCC-2998; assay type: cell-based; settings: 0.1 µM SC-1
Procedure: Standard protein electrophoretic techniques were followed using previously published protocols. For these studies, the colon lines were cultured for 5 days with and without treatments, harvested with trypsin (0.25% trypsin 0.5 mM EDTA, Invitrogen), counted and lysed with a whole cell lysis buffer (10 mM Tris, 1.0 mM EDTA, 50 mM NaCl, 0.5% deoxycholate, 0.5% NP-40, 0.5% SDS, 1.0 mM PMSF, and aprotonin and a cocktail of phosphatase and protease inhibitors). The whole cell lysate was heated to 100°C for 10 min and then fractionated (1000 g, 10 min, 4°C). Protein concentrations were measured with the Pierce BCA Protein Assay. Twenty to 40 µg of protein lysate per lane were loaded onto 10% SDS polyacrylamide gels (Ready-Gels, Biorad) with Laemmli buffer. For immunoblotting, the primary antibodies were diluted in Tween/Tris wash buffer (0.1 mM Tris-HCl pH 7.5, 2.5% Tween-20, 150 mM NaCl) and 5% BSA or nonfat dry milk and incubated overnight at 4°C. Visualization of specific bands was accomplished with an alkaline phosphatase-labeled secondary anti-immunoglobulin antibody and the ECF Chemifluorescent reagent (GE Amersham). Pixel intensity of the imaged bands was measured using STORM (GE Amersham) and Image Quant Software. Normalization for loading was accomplished by reprobing with an anti-actin antibody, quantification of pixel intensity and data normalization.

colon tumor lines = settings: five day exposure to 0.1 µM SC-1
Procedure: In all experiments, each tumor line was cultured in 60 mm^2 tissue culture treated dishes at an initial concentration of 62,500/ml (total 4 ml) before addition of 0.1 µM SC-1 or an equivalent amount of diluent (DMS0) the next day. Five day exposures were conducted. The final concentration utilized for treatment for all tumor lines was determined by evaluating a range of SC-1 concentrations (0.01 to 10 µM) for sphere formation and any cytotoxic effects in the HCT-116 tumor line.
*Each colon cell line was seeded on day 0 with 0.25 x 10^6 cell/60 mm^2 Petri dish. Compound (0.1 µM) was added on day 1 and cells were enzymatically harvested 5 days later.

[4] = soft agar, summary of SC-1 effects

CHK1, sequence (O14757 whole entry, species assumed, the tested form may be a part): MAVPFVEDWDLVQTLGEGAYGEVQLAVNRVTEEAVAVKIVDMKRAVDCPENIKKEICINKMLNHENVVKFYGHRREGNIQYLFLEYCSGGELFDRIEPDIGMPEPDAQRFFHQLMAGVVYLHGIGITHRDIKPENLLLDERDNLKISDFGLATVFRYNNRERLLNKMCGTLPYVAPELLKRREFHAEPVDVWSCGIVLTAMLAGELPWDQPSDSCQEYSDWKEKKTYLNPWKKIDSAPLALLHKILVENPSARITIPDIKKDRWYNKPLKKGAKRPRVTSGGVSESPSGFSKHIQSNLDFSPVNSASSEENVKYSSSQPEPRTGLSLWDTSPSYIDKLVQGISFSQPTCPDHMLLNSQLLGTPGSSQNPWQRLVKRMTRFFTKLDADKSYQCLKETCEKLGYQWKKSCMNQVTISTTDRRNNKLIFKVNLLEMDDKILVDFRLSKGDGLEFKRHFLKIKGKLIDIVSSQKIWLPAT
Aurora kinase B, sequence (Q96GD4 whole entry, species assumed): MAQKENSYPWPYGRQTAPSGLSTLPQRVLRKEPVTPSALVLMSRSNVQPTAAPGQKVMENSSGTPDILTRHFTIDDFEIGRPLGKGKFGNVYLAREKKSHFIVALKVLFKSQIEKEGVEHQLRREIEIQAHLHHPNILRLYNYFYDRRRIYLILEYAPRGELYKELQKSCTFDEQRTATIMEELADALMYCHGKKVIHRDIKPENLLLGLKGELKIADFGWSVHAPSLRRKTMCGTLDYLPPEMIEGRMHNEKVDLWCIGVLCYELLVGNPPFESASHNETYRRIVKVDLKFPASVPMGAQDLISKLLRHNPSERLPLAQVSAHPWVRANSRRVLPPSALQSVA
CHK2, sequence (O96017 whole entry, species assumed): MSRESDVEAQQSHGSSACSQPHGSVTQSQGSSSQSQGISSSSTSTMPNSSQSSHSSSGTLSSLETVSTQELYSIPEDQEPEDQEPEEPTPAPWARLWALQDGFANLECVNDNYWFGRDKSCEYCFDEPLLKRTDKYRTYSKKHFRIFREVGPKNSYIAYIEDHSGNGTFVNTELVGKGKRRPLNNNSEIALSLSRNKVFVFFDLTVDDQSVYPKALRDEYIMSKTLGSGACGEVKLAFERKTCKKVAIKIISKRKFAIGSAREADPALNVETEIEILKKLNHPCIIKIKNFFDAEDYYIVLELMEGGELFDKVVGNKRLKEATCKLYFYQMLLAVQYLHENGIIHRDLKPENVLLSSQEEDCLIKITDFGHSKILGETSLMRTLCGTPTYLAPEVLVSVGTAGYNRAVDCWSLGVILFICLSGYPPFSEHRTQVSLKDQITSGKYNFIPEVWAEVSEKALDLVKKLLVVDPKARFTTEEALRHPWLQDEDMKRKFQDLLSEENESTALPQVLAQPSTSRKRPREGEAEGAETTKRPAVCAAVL

Cc1cc(Nc2ncc3c(n2)N(C)C(=O)N(c2cc(NC(=O)c4cccc(C(F)(F)F)c4)ccc2C)C3)n(C)n1 [SC-1]
Cloning efficiency in soft agar vs control (HT29 [1]; 0.1 µM SC-1 for five days): significant increases in cloning efficiencies | Clonogenicity (HT29 [1]; [4]): Y | Cloning efficiency in soft agar vs control (HCT-116; 0.1 µM SC-1 for five days): significant increases in cloning efficiencies | Clonogenicity (HCT-116; [4]): Y | Tumor take rate, TOTAL ([2]; 100 cells inoculated s.c.): 2/35 | Tumor take rate, TOTAL ([2]; 1000 cells inoculated s.c.): 6/35 | Tumor take rate, TOTAL ([2]; 10000 cells inoculated s.c.): 19 of 35 and 19/35 | Frequency estimate of tumor initiating ability, increase vs control ([2]; cumulative tumor take rate, 7 colon tumor lines, calculated from Taswell): approximately 2 fold | Mean day to 1000 mg tumor ([2]; mean±s.e.m. of 5 colon lines forming tumors, 10,000 cells/inoculum, 0.1 µM SC-1 pretreatment): 83 ± 19 days | Inhibitory activity on kinase (CHK1): no effect | Inhibitory activity on kinase (CHK2): no effect | Inhibitory activity on kinase (Aurora kinase B): no effect | Number of spheres per well vs control (HT29 [3]): Increased Sphere Formation | OCT4 protein expression (OCT4): increased | Cell number after in vitro SC-1 treatment vs control (colon tumor lines): statistically significant decrease in cell number
